Source: patent US20030133962A1, “Pest control agent/pf 1022-221” (priority 1999, published 2003)

Columns and labels:
silkworms = conditions: known from literature (Kanaoka et al. 1979; JP 05 271 013); cited from earlier work
Meloidogyne incognita = test: Meloidogyne test; type: in vivo; conditions: active compound concentration 20 ppm; sand, lettuce seeds
Experimental: (§1) Solvent: 3 parts by weight of dimethylformamide
(§2) Emulsifier: 1 part by weight of alkylaryl polyglycol ether
To produce a suitable preparation of active compound, 1 part by weight of active compound is mixed with the stated amounts of solvent and emulsifier, and the concentrate is diluted with water to the desired concentration.
Vessels are filled with sand, a solution of the active compound, Meloidogyne incognita-egg larvae suspension and lettuce seeds. The lettuice seeds germinate, and the small plants develop. On the roots, galls are formed.
After the desired period of time, the nematicidal action is determined in % by the formation of galls. 100% means that no galls have been found; 0% means that the number of galls on the treated plants corresponds to that of the untreated control.

[1] = system: caterpillars of the diamond back moth (Plutella xylostella); test: Plutella test/symptomatology study; type: in vivo; conditions: 10 μg/larva; 1 μl acetone solution administered to caterpillars
Experimental: Plutella test/symptomatology study
To prepare an advantgeous preparation of active compound, 10 mg of active compound are mixed with 1 ml of solvent.
1 μl of the solution prepared in this manner is administered to caterpillars of the diamond back moth (Plutella xylostella).
After the desired period of time, the kill in % is determined 100% means that all caterpillars have been killed; 0% means that none of the caterpillars have been killed.

[2] = system: caterpillars of the army worm (Spodoptera frugiperda); test: Spodoptera frugiperda test; type: in vivo; conditions: active compound concentration 1000 ppm; dipped cabbage leaves (Brassica oleracea)
Experimental: Spodoptera frugiperda test
Solvent: 31 parts by weight of acetone
as §2
(§3) To produce a suitable preparation of active compound, 1 part by weight of active compound is mixed with the stated amounts of solvent and emulsifier, and the concentrate is diluted with emulsifier-containing water to the desired concentration.
Cabbage leaves (Brassica oleracea) are treated by being dipped into the preparation of active compound of the desired concentration and populated with caterpillars of the army worm (Spodoptera frugiperda) while the leaves are still moist.
After the desired period of time, the kill in % is determined. 100% means that all caterpillars have been killed; 0% means that none of the caterpillars have been killed.

[3] = system: larvae of the mustard beetle (Phaedon cochleariae); test: Phaedon larvae test; type: in vivo; conditions: active compound concentration 1000 ppm; dipped cabbage leaves (Brassica oleracea)
Experimental: as §1, §2, §3
Cabbage leaves (Brassica oleracea) are treated by being dipped into the preparation of active compound of the desired concentration and populated with larvae of the mustard beetle (Phaedon cochleariae) while the leaves are still moist.
After the desired period of time, the kill in % is determined. 100% means that all beetle larvae have been killed; 0% means that none of the beetle larvae have been killed.

SMILES | insecticidal activity against silkworms (silkworms) | nematicidal action (effect) by the formation of galls (Meloidogyne incognita) | kill rate [1] | kill rate [2] | kill rate [3]
CC(C)C[C@H]1C(=O)O[C@H](Cc2ccccc2)C(=O)N(C)[C@@H](CC(C)C)C(=O)O[C@H](C)C(=O)N(C)[C@@H](CC(C)C)C(=O)O[C@H](Cc2ccccc2)C(=O)N(C)[C@@H](CC(C)C)C(=O)O[C@H](C)C(=O)N1C [PF1022A] | insecticidal activity |  |  |  | 
CC(C)C[C@H]1C(=O)O[C@H](C(C)C)C(=O)N(C)[C@@H](CC(C)C)C(=O)O[C@H](C(C)C)C(=O)N(C)[C@@H](CC(C)C)C(=O)O[C@H](C(C)C)C(=O)N(C)[C@@H](CC(C)C)C(=O)O[C@H](C(C)C)C(=O)N1C [bassianolide] | insecticidal activity |  |  |  | 
CC(C)C[C@H]1C(=O)O[C@H](Cc2ccc(N3CCOCC3)cc2)C(=O)N(C)[C@@H](CC(C)C)C(=O)O[C@H](C)C(=O)N(C)[C@@H](CC(C)C)C(=O)O[C@H](Cc2ccc(N3CCOCC3)cc2)C(=O)N(C)[C@@H](CC(C)C)C(=O)O[C@H](C)C(=O)N1C [compound of the formula (I)] |  | 98% | 100% | 100% | 100%
